Consider eleven molecules from ChEMBL document CHEMBL1201862, “PubChem BioAssay data set” (2004).

Among the test systems are COLO 205; HCT-116; HCT-15; HL-60; HOP-62; HOP-92; IGROV-1; K562; Malme-3M; NCI-H522; RPMI-8226; RXF 393; SK-MEL-2; SK-MEL-5; SK-OV-3; SNB-19; U-251; UACC-62; SF-268; SW-620.
Holding throughout (assay): DTP human tumour cell line panel, 48 h

As a reminder, the GI50 is the concentration at which growth is held to half of that of the control.

“And” between values parts separate entries of the source, which are not always exact repeats. Identical values can stand only once.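 A five-concentration, 48-hour dose response in 96-well plates underlies each endpoint, interpolated linearly between surrounding concentrations. Abbreviation: GI50, concentration required for 50% inhibition of growth.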 The source made the active and inactive calls. Cut-off read from the data, not from the text of the source: active = GI50 up to about 1.1 µM and inactive = higher. Where a SMILES comes first, the peptide text is derived from it. [ ]: non-standard residue; d: D form. The star is where a group is joined. Iva = CC[C](C)(N)C(=O)O; Boc = CC(C)(C)OC(=O)*; X54 = C1CCC(=NO*)C1

As for `CCC(C)(NC(=O)C(C)NC(=O)OC(C)(C)C)C(=O)NC(C)C(=O)NC(C)(CC)C(=O)ON=C1CCCC1` (stereo not given) (Boc-A[Iva]A[Iva]-X54; configuration not given here), the GI50 with COLO 205 was > 100 µM (inactive); in the assay on HCT-116, > 100 µM (inactive); in the assay on HCT-15, above 100 µM; in the assay with HL-60 it was > 100 µM (inactive); with HOP-62, > 100 µM (inactive); in the assay on HOP-92, > 100 µM (inactive). Moreover, the GI50 in the assay on IGROV-1 is > 100 µM (inactive); in the assay with K562, 31.1 µM (inactive); in the assay on Malme-3M, > 100 µM (inactive); in the assay on NCI-H522, > 100 µM (inactive); in the assay with RPMI-8226 it was > 100 µM (inactive); in the assay with RXF 393, 16.7 µM (inactive). In addition, the GI50 in the assay with SK-MEL-2, with SK-MEL-5, in the assay on SK-OV-3, in the assay with SNB-19, in the assay with U-251 and in the assay with UACC-62 was > 100 µM (inactive) in each case.

For `COc1ccc(-c2c3c(nc4nc(SCC(=O)c5ccc(Br)cc5)nc(N)c24)CCCC3)cc1OC`, the GI50 was > 100 µM (inactive) in the assay with COLO 205; > 100 µM (inactive) with HCT-116; above 100 µM with HCT-15; 90.6 µM (inactive) in the assay with HL-60; 58.6 µM (inactive) in the assay with HOP-62; > 100 µM (inactive) in the assay on IGROV-1. In addition, the GI50 was > 100 µM (inactive) with K562; 42.6 µM (inactive) in the assay on Malme-3M; 64.1 µM (inactive) with RPMI-8226; 19.3 µM (inactive) in the assay on RXF 393; 71.9 µM (inactive) in the assay with SF-268; 10.1 µM (inactive) in the assay on SK-MEL-5. The GI50 is 30.5 µM (inactive) with SK-OV-3; > 100 µM (inactive) in the assay on SNB-19; 74.5 µM (inactive) in the assay on SW-620; > 100 µM (inactive) in the assay with U-251; > 100 µM (inactive) in the assay on UACC-62.

For the molecule `COc1ccc(/C=N/n2cnc3c(c2=O)SC(=C(C#N)C#N)N3c2ccccc2)cc1`, the GI50 is > 100 µM (inactive) with COLO 205; > 100 µM (inactive) with HCT-116; > 100 µM (inactive) in the assay on HL-60; 86.5 µM (inactive) in the assay on HOP-62; 38.8 µM (inactive) in the assay with HOP-92; > 100 µM (inactive) with IGROV-1. Besides, the GI50 in the assay on K562 is > 100 µM (inactive); with NCI-H522, 56.2 µM (inactive); in the assay on RPMI-8226, > 100 µM (inactive); with SF-268, 41.1 µM (inactive); in the assay on SK-MEL-5 it was > 100 µM (inactive); in the assay with SK-OV-3, > 100 µM (inactive). Moreover, the GI50 in the assay on SNB-19, with SW-620, in the assay with U-251 and in the assay with UACC-62 was > 100 µM (inactive) in each case.

In the case of `O=C1C(Cl)N(c2ccc(Cl)cc2)C1c1c[nH]c2ccccc12` (stereo not given), the GI50 in the assay with COLO 205 is 22.5 µM (inactive); in the assay on HCT-116, 13.8 µM (inactive); with HL-60, 15.8 µM (inactive); in the assay with HOP-62 it was 17.7 µM (inactive); in the assay with HOP-92, 22.5 µM (inactive); in the assay on IGROV-1, 16.7 µM (inactive). Further, the GI50 in the assay on K562 was 16.7 µM (inactive); with Malme-3M it was 12.5 µM (inactive); in the assay on NCI-H522, 17.2 µM (inactive); in the assay with RPMI-8226, 20.6 µM (inactive); in the assay on RXF 393, 20 µM (inactive); with SF-268, 26.2 µM (inactive). Further, the GI50 in the assay with SK-MEL-2 was 14.5 µM (inactive); in the assay on SK-MEL-5 it was 15.5 µM (inactive); with SK-OV-3, > 10 µM (inactive); in the assay with SNB-19 it was 18.2 µM (inactive); in the assay on SW-620 it was 26 µM (inactive); in the assay on U-251, 13 µM (inactive). Further, in the assay with UACC-62, the GI50 was 14.9 µM (inactive).

Consider `COc1cc2cc[n+]3c(C)c4cc(OC)c(OC)cc4c([O-])c3c2cc1OC`, for which the GI50 was 12.4 µM (inactive) in the assay with COLO 205; 89.7 µM (inactive) in the assay with HCT-116; above 100 µM in the assay with HCT-15; 16.9 µM (inactive) with HL-60; > 100 µM (inactive) in the assay with HOP-62; > 100 µM (inactive) in the assay on HOP-92. The GI50 with IGROV-1 was 25.7 µM (inactive); in the assay on K562 it was 64.3 µM (inactive); with Malme-3M, 26.9 µM (inactive); in the assay with NCI-H522, 18.2 µM (inactive); with RPMI-8226, > 100 µM (inactive); with RXF 393, 35.6 µM (inactive). In addition, the GI50 is 36.3 µM (inactive) with SF-268; 56.9 µM (inactive) with SK-MEL-2; 36.8 µM (inactive) in the assay on SK-MEL-5; > 100 µM (inactive) in the assay on SK-OV-3; > 100 µM (inactive) in the assay with SNB-19; 41.9 µM (inactive) with SW-620. Moreover, the GI50 in the assay with U-251 is 47.1 µM (inactive); in the assay with UACC-62, > 100 µM (inactive).

Consider `CCOC(=O)c1ccc(N2C(=O)/C(=C/c3ccc(N(CCC#N)CCC#N)cc3)N=C2c2cc([N+](=O)[O-])ccc2Cl)cc1`, for which the GI50 was > 100 µM (inactive) with COLO 205; > 100 µM (inactive) in the assay with HCT-116; above 100 µM in the assay with HCT-15; > 100 µM (inactive) in the assay on HOP-62; > 100 µM (inactive) with HOP-92; > 100 µM (inactive) with IGROV-1. Also, the GI50 in the assay with K562, with Malme-3M, in the assay on NCI-H522, in the assay on RPMI-8226, in the assay on RXF 393 and in the assay on SF-268 was > 100 µM (inactive) throughout. For the same molecule, the GI50 with SK-MEL-2, in the assay with SK-MEL-5, in the assay on SK-OV-3, with SNB-19, in the assay on SW-620 and in the assay on U-251 was > 100 µM (inactive) each time. Further, in the assay on UACC-62, the GI50 is 93.3 µM (inactive).

Take `C[C@@H]1C[C@]2(C[C@@H](C)[C@H]3C(C[C@@]4(C)CCC[C@@H]5C6=C[C@H](CCC34C)OC6=CC(=O)OC5(C)C)O2)OC1=O` (stereo not given in full): the GI50 is > 51.5 µM (inactive) in the assay with COLO 205; above 51.5 µM in the assay on HCT-15; > 51.5 µM (inactive) with HL-60; > 51.5 µM (inactive) in the assay with HOP-62; 43.1 µM (inactive) with HOP-92; > 51.5 µM (inactive) with IGROV-1. In addition, the GI50 with K562, in the assay on NCI-H522, in the assay with RPMI-8226, with SK-MEL-2, in the assay on SK-MEL-5 and in the assay on SK-OV-3 was > 51.5 µM (inactive) in each case. Besides, the GI50 in the assay with SNB-19, with SW-620, in the assay with U-251 and with UACC-62 was > 51.5 µM (inactive) throughout.

Regarding `CC(=O)c1ccc(Oc2ccc(/C(C)=N\N=C(N)N)cc2)cc1`, the GI50 is 1.67 µM (inactive) in the assay on COLO 205; 3.24 µM (inactive) with HCT-116; 2.17 µM in the assay with HCT-15; 2.26 µM (inactive) in the assay on HOP-62; 2.96 µM (inactive) with HOP-92; 5.62 µM (inactive) in the assay on IGROV-1. The GI50 in the assay with Malme-3M is 1.97 µM (inactive); in the assay with NCI-H522 it was 1.8 µM (inactive); in the assay with RPMI-8226 it was 2.31 µM (inactive); in the assay with SF-268, 3.59 µM (inactive); in the assay on SK-MEL-2, 1.73 µM (inactive); in the assay with SK-MEL-5 it was 2.08 µM (inactive). Further, the GI50 in the assay on SK-OV-3 is 2.83 µM (inactive); in the assay with SNB-19 it was 10.7 µM (inactive); with U-251 it was 2.77 µM (inactive); with UACC-62 it was 2 µM (inactive).

Consider `CCOC(=O)C1=C(C)N(C2OC(COC(C)=O)C(OC(C)=O)C(OC(C)=O)C2OC(C)=O)C(=O)NC1c1ccccc1` (stereo not given), for which the GI50 with COLO 205 is > 100 µM (inactive); in the assay on HCT-116, > 100 µM (inactive); with HCT-15, above 100 µM; with HL-60 it was > 100 µM (inactive); in the assay with HOP-62, > 100 µM (inactive); with IGROV-1, > 100 µM (inactive). In addition, the GI50 in the assay on K562 is > 100 µM (inactive); in the assay on Malme-3M, > 100 µM (inactive); in the assay on NCI-H522, 20 µM (inactive); with RPMI-8226 it was 4.84 µM (inactive); in the assay on SF-268 it was > 100 µM (inactive); in the assay on SK-MEL-2, > 100 µM (inactive). The GI50 with SK-MEL-5, in the assay on SK-OV-3, with SNB-19, in the assay on SW-620, in the assay on U-251 and in the assay on UACC-62 was > 100 µM (inactive) throughout.

For `CC(Oc1ccc(Oc2cnc3ccc(Cl)cc3n2)cc1)C(=O)O` (stereo not given), the GI50 with COLO 205 is > 70 µM (inactive); with HCT-116, 88.7 µM (inactive); with HL-60, > 100 µM (inactive); in the assay on HOP-62, > 99.3 µM (inactive); in the assay with HOP-92, > 100 µM (inactive); with IGROV-1 it was 37.4 µM (inactive) and 47.4 µM (inactive). In addition, the GI50 is 79.3 µM (inactive) in the assay with Malme-3M; 32.7 µM (inactive) with NCI-H522; > 100 µM (inactive) with RXF 393; 89.7 µM (inactive) in the assay with SF-268; > 100 µM (inactive) with SK-MEL-2; > 62.8 µM (inactive) and 72.8 µM (inactive) in the assay with SK-MEL-5. Moreover, the GI50 is > 100 µM (inactive) with SNB-19; > 99.8 µM (inactive) in the assay with SW-620; > 94.6 µM (inactive) with U-251; > 100 µM (inactive) and 81.1 µM (inactive) in the assay with UACC-62.

Turning to `COc1cc(C(O)(CC#N)c2cc3c(cc2Br)OCO3)cc(OC)c1OC` (stereo not given), the GI50 in the assay with COLO 205 is 37.6 µM (inactive); in the assay on HCT-116, 40.6 µM (inactive); in the assay with HOP-62, 1.63 µM (inactive); in the assay on HOP-92 it was > 100 µM (inactive); with IGROV-1 it was 20.9 µM (inactive); with K562 it was 48 µM (inactive). Also, the GI50 in the assay with RPMI-8226 is 50.7 µM (inactive); in the assay with RXF 393 it was 17.2 µM (inactive); with SF-268, 28.2 µM (inactive); in the assay with SK-MEL-2 it was 47 µM (inactive); in the assay on SK-OV-3, 24.4 µM (inactive); with SNB-19 it was 27.1 µM (inactive). The results for the GI50 with SW-620, in the assay on U-251 and in the assay with UACC-62 were 40.3 µM (inactive), 28.6 µM (inactive) and 24.9 µM (inactive), respectively.
